Test results: patent publication US4298745A, “Hydantoin derivatives” (Beecham Group Limited, priority 1978, dated 1981)
pIC50: −log10 of the molar value. Where two headings read alike, the source gives them in different places.

Tests used:
[1] = test system: indomethacin induced gastric damage; assay: anti-ulcer activity: inhibition of indomethacin induced gastric damage in the rat; type: in vivo; settings: 100 mg/kg orally
Method: Anti-ulcer activity was assessed by the inhibition of indomethacin induced gastric damage in the rat according to the method of Eleghe (1974) Israeli J. Med. Sci. IO, 1451. Rats were starved overnight, given 15 mg/kg indomethacin subcutaneously and sacrificed 4 hours later. Stomachs were reflated with n.saline, cut along the greater curvature pinned out and scored for gastric damage by the following system.
Score 1-3--according to degree of erythema and slight haemorrhage.
Score 4-6--according to degree of mucosal erosion.
Score 7-9--according to depth of gastric damage.
Groups of 7 rats were used for each treatment and the test compound or vehicle were administered 30 minutes prior to giving the indomethacin. Dose of test compound was 100 mg/kg orally and control groups receiving vehicle only were set up simultaneously. Mean values for each treatment were obtained using the above scoring system and the Mann Witney test applied for significance of difference between the values obtained with the treatments.

[2] = test system: bronchoconstriction induced by a histamine aerosol; assay: protection of conscious guinea pigs against bronchoconstriction induced by a histamine aerosol (Herxheimer test); type: in vivo, guinea pig; settings: Table B, compound by aerosol
Description: 2. The compounds were also examined for their ability to protect conscious guinea pigs against bronchoconstriction induced by a histamine aerosol (Herxheimer test). In these experiments the compounds were adminstered by aerosol.

[3] = test system: collagen induced platelet aggregation in human platelet rich plasma; assay: inhibition of platelet aggregation induced in vitro by collagen in human platelet rich plasma; type: cell-based; settings: Table C, read-out: IC50 against collagen induced aggregation
Description: The compounds were examined for their ability to inhibit platelet aggregation induced in vitro by collagen in human platelet rich plasma.

[4] = test system: 5-hydroxytryptamine induced bronchoconstriction; assay: inhibition of 5-hydroxytryptamine induced bronchoconstriction in the anaesthetised, artificially respired guinea pig (Konzett-Rossler preparation); type: in vivo; settings: for ED50: Cavia porcellus, iv
Method: 1. The compounds were examined for their ability to inhibit 5-hydroxytryptamine induced bronchoconstriction in the anaesthetised, artificially respired guinea pig (Konzett-Rossler preparation) The compounds were administered intravenously.
The test for bronchodilator activity used in `Bronchodilator activity` method 1 above was used with three test animals for the comparison testing of Compound 5 against the compound 5-(6-carboxyhexyl)-1-(3-hydroxy-4,4-dimethyloctyl)hydantoin (A) highlighted in German Offenlegungsschrift No. 2724948 for its anti-bronchoconstriction activity.

[5] = test system: arrhythmia in electrostimulation of the right ventricle; assay: anti-arrhythmic activity: increase of the voltage required to produce arrhythmia in electrostimulation of the right ventricle; type: in vivo, guinea pig; settings: Table D; anaesthetised guinea pigs, 32.0 mg/kg I.d.; p<0.5 (so in the source)
Description: Compound 5 was examined for its ability to increase the voltage required to produce arrhythmia in electrostimulation of the right ventricle in anaesthatised guinea pigs.

[6] = Table A, anaesthetised guinea pig, i.v., read-out: ED50 against 5-hydroxytryptamine induced bronchoconstriction
[7] = Table E, comparison testing, three test animals, guinea pig, read-out: ED50 (mean)

pIC50 [3]	Structure (SMILES)	Mean Score ± S.E. of mean (gastric damage) ([1]; 30 minutes before 15 mg/kg indomethacin s.c., score 1-9, vehicle control 4.14±0.59, p<0.01)	anti-ulcer activity (in words) ([1]; compared with vehicle only treatment)	Activity, Aerosol administration (Herxheimer test) [2] [µg/mL]	ED50 [4, 6] [µg/kg]	ED50 [4, 7] [µg/kg]	% increase of voltage ± SEM [5] [%]	bronchodilator potency of compound 5 relative to Compound A ([4]; comparison testing, Table E)
4.55	CCCCC(C)C(C)(O)CCN1C(=O)N(C)C(=O)C1CC=CCCCC(=O)O (stereo not drawn) [Compound 4, 1-(3'-hydroxy-3'-methyl-4'-methyl-n-octyl)-3-methyl-5(6"-carboxy-n-hex-2"- enyl)hydantoin]	0.43±0.20	reduced the mean ulcer score and therefore has significant anti-ulcer activity	0.5	0.6			
	CCCCC(C)(C)C(O)CCN1C(=O)NC(=O)C1CCCCCCC(=O)O (stereo not drawn) [Compound A, 5-(6-carboxyhexyl)-1-(3-hydroxy-4,4-dimethyloctyl)hydantoin, reference compound]					24.6		
4.66	CCCCCCC(C)(O)CCN1C(=O)N(C)C(=O)C1CC=CCCCC(=O)O (stereo not drawn) [Compound 5]			1	1.3	1.2	43.0 ± 7.0	at least an order of magnitude more potent
